pIC50: −log10 of the molar value. Structures can show the parent of a compound that is named as a salt.
Assays:
[1] = molecular target: T1, GST-FLT3-KD WT (FLT3 kinase catalytic domain) (Homo sapiens, UniProt P36888); assay: FLT3 WT Kinase-Glo assay; assay type: biochemical; details: 1 μM ATP, 30° C., 4 h; read-out: IC50, inhibiting FLT3 activity
T1 construct: containing the FLT3 kinase catalytic domain (residues Y567-5993); GST; made in house; host or cells: Sf9 insect cells (baculovirus, pBac-PAK8-GST-FLT3-KD plasmid)
T1 sequence (P36888 567-993 limits assumed): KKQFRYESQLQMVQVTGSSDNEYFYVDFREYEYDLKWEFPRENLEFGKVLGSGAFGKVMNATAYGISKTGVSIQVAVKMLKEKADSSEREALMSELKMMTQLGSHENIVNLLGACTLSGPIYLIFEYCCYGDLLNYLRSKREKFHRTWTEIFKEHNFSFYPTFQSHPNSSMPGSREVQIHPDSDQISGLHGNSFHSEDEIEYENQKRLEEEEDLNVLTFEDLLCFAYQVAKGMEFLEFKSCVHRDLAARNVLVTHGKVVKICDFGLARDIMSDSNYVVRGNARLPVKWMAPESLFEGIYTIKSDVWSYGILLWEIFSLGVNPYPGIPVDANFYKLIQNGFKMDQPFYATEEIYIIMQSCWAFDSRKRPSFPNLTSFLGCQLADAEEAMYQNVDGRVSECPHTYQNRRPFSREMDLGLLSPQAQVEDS
Protocol: A study was carried out as follows to test compound 1 HCl salt prepared according to EXAMPLE 1 in inhibiting FLT3 activity.
GST-FLT3-KD^WT containing the FLT3 kinase catalytic domain (residues Y567-5993) was expressed in Sf9 insect cells transfected the baculovirus containing pBac-PAK8-GST-FLT3-KD plasmid. An FLT3^WT Kinase-Glo assay was carried out in 96-well plates at 30° C. for 4 h to test compound in a final volume of 50 μL including the following components: 75 ng GST-FLT3-KD^WT proteins, 25 mM HEPES, pH 7.4, 4 mM MnCl2, 10 mM MgCl2, 2 mM DTT, 0.02% Triton X-100, 0.1 mg/mL bovine serum albumin, 25 μM Her2 peptide substrate, 0.5 mM Na3VO4, and 1 μM ATP. Following incubation, 50 μL Kinase-Glo Plus Reagent (Promega, Madison, Wis., USA) was added to each well and the mixture was incubated at 25° C. for 20 min. A 70-μL aliquot of each reaction mixture was transferred to a black microtiter plate and the luminescence was measured on Wallac Vector 1420 multilabel counter (PerkinElmer, Shelton, Conn., USA).

[2] = molecular target: T2, human c-KIT (residues T544-V976) (Homo sapiens, UniProt P10721); assay: c-Kit ADP Kinase-Glo assay; assay type: biochemical; details: 20 μM ATP, 30° C., 150 mins; read-out: IC50, inhibiting c-Kit activity
T2 construct: human c-KIT (residues T544-V976); His (N); made in house; host or cells: baculovirus-insect cell expression system (printed '519', evidently Sf9)
T2 sequence (P10721 544-976): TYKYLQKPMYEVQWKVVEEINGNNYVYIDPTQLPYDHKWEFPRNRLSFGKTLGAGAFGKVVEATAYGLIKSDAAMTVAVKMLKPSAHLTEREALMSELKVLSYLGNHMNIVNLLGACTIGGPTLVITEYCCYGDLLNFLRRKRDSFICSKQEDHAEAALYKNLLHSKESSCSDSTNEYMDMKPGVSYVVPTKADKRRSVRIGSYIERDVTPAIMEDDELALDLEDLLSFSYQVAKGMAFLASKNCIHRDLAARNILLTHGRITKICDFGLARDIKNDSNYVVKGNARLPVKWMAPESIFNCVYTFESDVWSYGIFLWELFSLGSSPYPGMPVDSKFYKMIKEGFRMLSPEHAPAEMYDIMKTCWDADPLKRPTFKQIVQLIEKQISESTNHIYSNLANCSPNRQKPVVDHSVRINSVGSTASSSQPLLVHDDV
Protocol: A study was carried out as follows to test compound 1 HCl salt prepared according to EXAMPLE 1 in inhibiting c-Kit activity.
The N-terminal His-tagged human c-KIT (residues T544-V976) recombinant proteins, expressed in 519 baculovirus-insect cell expression systems, were purified for c-KIT ADP Kinase-Glo assay. A c-Kit-ADP Kinase-Glo assay was carried out in 96-well plates at 30° C. for 150 mins with a final volume of 10 μL, including 40 mM Tris pH 7.4, 20 mM MgCl2, 2 mM MnCl2, 2 mM DTT, 0.01% BSA, 20 μM ATP, 20 μM poly(Glu,Tyr) 4:1 peptide, 0.1 mM Na3VO4, 250 ng of recombinant c-Kit proteins, and a tested compound at the indicated concentration. The reactions were stopped by the addition of 5 μL ADP-Glo™ Reagent (Promega, Madison, Wis., USA) at 25° C. with 40 min incubation, followed by 10 μL of kinase detection reagent for a further 30 min. Finally, a […] aliquot of each reaction mixture was transferred to a black microtiter plate and the luminescence was measured on Wallac Vector 1420 multilabel counter (Perkin-Elmer, Shelton, Conn., USA).

MOLM-13 cells = assay: MTS cell viability assay, MOLM-13; assay type: cell-based; details: Homo sapiens, MOLM-13, 72 h
Excerpt: (§1) MV4:11, BaF3 and HEK293T cell lines were obtained from American Type Culture Collection (ATCC, Manassas, Va., USA). MOLM-13 cell line was purchased from the Deutsche Sammlung von Microorganismen and Zellkulturen GmbH (DSMZ, Braunschweig, Germany). The GIST-T1 cell line was obtained from COSMO BIO CO., LTD (Tokyo, Japan). The GIST-T1, MOLM-13, MV4:11, BaF3, BaF3/FLT3-D835Y, BaF3/FLT3-ITD-F691L and BaF3/FLT3-ITD-D835Y cells were maintained in RPMI 1640 medium supplemented with 10% fetal bovine serum (FBS), 10 U/mL penicillin, and 100 μg/mL streptomycin at 37° C. and 5% CO2. The kasumin-1 cells were cultured in RPMI 1640 medium supplemented with 20% fetal bovine serum (FBS), 1 mM Hepes, 1 mM sodium pyruvate, 10 U/ml penicillin, and 100 μg/ml streptomycin. The HEK293T and FLT3-transfected HEK293T cells were cultured in DMEM (Invitrogen, USA) medium with 10% FBS fetal bovine serum. […]
(§2) Cell viability assay was performed by seeding 1×10^4 cells (MOLM-13, MV4:11, BaF3, BaF3/FLT3-D835Y, BaF3/FLT3-ITD-D835Y and BaF3/FLT3-ITD-F691L) per well in a 96-well culture plate. […] The viable cells were quantitated using the CellTiter 96 AQueous MTS method (Promega, Madison, Wis., USA) according to the manufacturer's recommended protocol. The results were determined by measuring the absorbance at 490 nm using a plate reader (Victor2; PerkinElmer, Shelton, Conn., USA). […]

MV4:11 cells = assay: MTS cell viability assay, MV4:11; assay type: cell-based; details: Homo sapiens, MV4-11, 72 h
Excerpt: as §1, §2

GIST-T1 cells = assay: MTS cell viability assay, GIST-T1; assay type: cell-based; details: Homo sapiens, GISTT1, 72 h
Excerpt: as §1, §2

GIST430 cells = assay: Cell proliferation assay (methylene blue), GIST430; assay type: cell-based; details: Homo sapiens, GIST430, 120 h
Protocol: (§3) GIST882, GIST48 and GIST430 cells were all cultured in incubators maintained at 37° C. and 5% CO2. GIST882 was cultured in RPMI-1640 supplemented with 20% fetal bovine serum (FBS). GIST48 was cultured with F10 supplemented with 20% FBS, 0.5% Mito, serum extender (BD Bioscience, 355006) and 1% pituitary extract bovine (BD Bioscience 354123). GIST430 was cultured in IMDM supplemented with 20% FBS. GIST882, GIST430 and GIST48 cells were provided by Dr. Jonathan A. Fletcher (Harvard Medical School, US).
(§4) GIST cells (4×10^4) were treated with different dosage of compounds. The treated GIST882 cells were incubated for 144 h and GIST48 and GIST430 cells were incubated for 120 h at 37° C. in 5% CO2. Cell proliferation was determined by incubating the cells with methylene blue (Clontech, CA, US) for 1 hour. The absorbance was measured at 450 nm using SpectraMax M5 microplate reader (Molecular Devices, US).

GIST48 cells = assay: Cell proliferation assay (methylene blue), GIST48; assay type: cell-based; details: Homo sapiens, GIST48, 120 h
Protocol: as §3, §4

GIST882 cells = assay: Cell proliferation assay (methylene blue), GIST882; assay type: cell-based; details: Homo sapiens, GIST882, 144 h
Protocol: as §3, §4

[3] = test system: BaF3/FLT3-ITD-F691L cells; assay: MTS cell viability assay, BaF3/FLT3-ITD-F691L; assay type: cell-based, murine; details: Mus musculus, 72 h
Excerpt: as §1, §2

[4] = test system: BaF3/FLT3-ITD-D835Y cells; assay: MTS cell viability assay, BaF3/FLT3-ITD-D835Y; assay type: cell-based, murine; details: Mus musculus, 72 h
Excerpt: as §1, §2

BaF3/FLT3-D835Y cells = assay: MTS cell viability assay, BaF3/FLT3-D835Y; assay type: cell-based, murine; details: Mus musculus, 72 h
Excerpt: as §1, §2

[5] = test system: BaF3 cells (IL3 dependent pro-B cell line); assay: MTS cell viability assay, BaF3 + IL3; assay type: cell-based, murine; details: Mus musculus; BaF3 + IL3, 72 h
Excerpt: as §1, §2

Kasumi-1 xenografts = assay: In vivo efficacy study on Kasumi-1 xenografts; set-up: species or system SCID male mice; details: days 1-5 and 8-12; for Day 18 Tumor Size: control 880

Cc1nc(Nc2ncc(-c3ccncc3)s2)cc(N2CCNCC2)n1 [Compound 1 HCl salt, 2-Methyl-6-(piperazin-1-yl)-N-[5-(pyridine-4-yl)-1,3-thiazol-2-yl]pyrimidin-4-amine dihydrochloride]
pIC50 [1]: > 7.00
pIC50 [2]: > 7.00
GI50 (MOLM-13 cells): 2.9 nM
GI50 (MV4:11 cells): 1.3 nM
GI50 (GIST-T1 cells): 2.3 nM
GI50 (GIST430 cells): 33 nM
GI50 (GIST48 cells): 20 nM
GI50 (GIST882 cells): 8 nM
GI50 [3]: 95 nM
GI50 [4]: 53 nM
GI50 (BaF3/FLT3-D835Y cells): 14 nM
GI50 [5]: 2580 nM
Body Weight Loss (Kasumi-1 xenografts; 10 mg/kg oral): No
Mortality (n = 6) (Kasumi-1 xenografts; 10 mg/kg oral): 0/6
Day 18 Tumor Size (Kasumi-1 xenografts; 10 mg/kg oral): 700 mm^3
Body Weight Loss (Kasumi-1 xenografts; 50 mg/kg oral): No
Mortality (n = 6) (Kasumi-1 xenografts; 50 mg/kg oral): 0/6
Day 18 Tumor Size (Kasumi-1 xenografts; 50 mg/kg oral): 80 mm^3
